# Test results: US20180353501A1 (Arvinas, Inc., priority 2017, published 2018)
# “And” between values parts separate entries of the source, which are not always exact repeats. Equal entries are not always repeated. Where two headings read alike, the source gives them in different places.
# Experiments:
# [1] = target: T1, p38δ:PROTAC:VHL ternary complex (Homo sapiens, UniProt O15264+P40337); experiment: SPR ternary complex affinity and kinetics; type: binding; settings: for Kd: equimolar p38δ:PROTAC injected onto immobilized GST-VBC
# T1 construct: encoding a region spanning amino acids 1-365 was PCR-amplified; His6 (N); made in house; host or cells: E. coli (BL21-CodonPlus(DE3)-RIPL for p38δ; BL21(DE3) for GST-VBC)
# T1 sequence (O15264 whole entry, the tested form may be a part): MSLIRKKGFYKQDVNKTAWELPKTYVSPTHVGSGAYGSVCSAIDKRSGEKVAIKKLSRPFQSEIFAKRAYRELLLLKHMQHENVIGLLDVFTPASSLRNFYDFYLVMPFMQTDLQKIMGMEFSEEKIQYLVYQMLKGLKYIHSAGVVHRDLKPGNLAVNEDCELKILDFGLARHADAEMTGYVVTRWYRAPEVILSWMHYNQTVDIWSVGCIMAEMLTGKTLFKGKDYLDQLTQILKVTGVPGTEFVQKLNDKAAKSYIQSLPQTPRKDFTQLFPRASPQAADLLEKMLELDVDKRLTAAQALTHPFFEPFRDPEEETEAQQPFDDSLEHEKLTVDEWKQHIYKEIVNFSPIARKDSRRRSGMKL
# T1 sequence (P40337 whole entry, the tested form may be a part): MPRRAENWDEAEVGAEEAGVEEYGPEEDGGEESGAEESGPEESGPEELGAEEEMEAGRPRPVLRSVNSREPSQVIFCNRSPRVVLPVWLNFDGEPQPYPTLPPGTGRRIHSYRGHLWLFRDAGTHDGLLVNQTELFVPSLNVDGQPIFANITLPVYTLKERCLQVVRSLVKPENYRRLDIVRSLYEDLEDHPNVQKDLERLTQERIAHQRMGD
# T1 sequence (Q15370 whole entry partner, the tested form may be a part): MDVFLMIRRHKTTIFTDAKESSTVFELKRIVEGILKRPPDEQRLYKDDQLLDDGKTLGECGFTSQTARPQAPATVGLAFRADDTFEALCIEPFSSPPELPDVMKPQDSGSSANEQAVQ
# T1 sequence (Q15369 whole entry partner, the tested form may be a part): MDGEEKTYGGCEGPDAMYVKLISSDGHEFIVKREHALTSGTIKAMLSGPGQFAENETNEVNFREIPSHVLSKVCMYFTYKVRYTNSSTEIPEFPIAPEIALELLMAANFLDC
# Description: FIGS. 16A, 16B, and 16C. SPR curves assessing binary and ternary interactions. […] (C) SPR kinetic evaluation of p38δ:compound 46:VHL and p38δ:compound 50:VHL ternary complex interactions. Equimolar p38δ:PROTAC mixtures were injected onto immobilized GST-VBC and allowed to dissociate overtime. […] See Table 12 for a summary of the binary and ternary affinity and kinetic measurements.
# Next, with the same setup, equimolar p38δ:PROTAC dilutions were successively injected onto immobilized VHL for 60 seconds, prior to monitoring complex dissociation for the remaining 300 seconds. This SPR strategy enabled us to determine effective ternary affinities for a given p38δ:PROTAC:VHL complex and compare the relative affinity change that occurs between VHL:PROTAC when p38δ is present in the mixture. […] This “enhanced” composite affinity is likely due to the additional PPIs between VHL and p38δ when in the presence of exemplary compound 46.
# SPR experiments were conducted on a Biacore 3000 instrument (GE Healthcare) at room temperature. GST antibody was immobilized through direct amination onto a carboxymethylated dextran surface (CM5) and GST-VBC was captured on the CM5 surface. This prepared surface was equilibrated over three hours in running buffer (10 mM HEPES buffer pH 7.4, 150 mM NaCl, 0.4 mg mL^−1 BSA, 0.005% P20, 2% DMSO). All compounds were prepared in 100% DMSO stock plates with a top concentration of 500 μM in a 3× serial dilution. Exemplary compounds were transferred from the stock plate to the assay plate and diluted into running buffer without DMSO. Equimolar concentration of target protein was added to corresponding compound wells. All exemplary compounds were run as a twelve point-concentration series with a final assay top concentration of 50 μM to measure p38δ:PROTAC and VHL:PROTAC binding and top concentration of 5 μM to measure p38δ:PROTAC:VHL binding. All exemplary compounds were injected for 60 seconds and allowed to dissociate for 300 seconds. Data analysis was performed in Scrubber 2 (BioLogic Software). Blanks from reference flow cell containing immobilized GST-VBC were subtracted to correct for noise and data was solvent-corrected against a standard DMSO curve.
# [2] = target: T2, His-p38α:PROTAC:GST-VBC ternary complex (Homo sapiens, UniProt P40337+Q16539); experiment: AlphaLISA ternary complex assay; type: binding; settings: increasing PROTAC concentrations; VBC and p38α 150 nM
# T2 construct: encodes a region spanning amino acids 2-360 of the human p38α kinase; made in house; host or cells: E. coli (BL21-CodonPlus(DE3)-RIPL for p38α; BL21(DE3) for GST-VBC)
# T2 sequence (Q16539 2-360 limits assumed): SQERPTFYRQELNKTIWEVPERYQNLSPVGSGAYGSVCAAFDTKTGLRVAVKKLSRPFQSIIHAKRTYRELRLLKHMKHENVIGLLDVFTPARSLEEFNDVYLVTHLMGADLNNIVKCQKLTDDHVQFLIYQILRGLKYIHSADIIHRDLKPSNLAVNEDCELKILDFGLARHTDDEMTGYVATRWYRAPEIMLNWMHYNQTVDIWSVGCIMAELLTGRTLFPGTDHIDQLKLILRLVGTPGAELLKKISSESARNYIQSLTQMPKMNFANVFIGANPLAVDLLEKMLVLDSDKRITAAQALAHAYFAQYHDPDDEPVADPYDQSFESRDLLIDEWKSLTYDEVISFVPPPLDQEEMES
# T2 sequence (P40337 whole entry, the tested form may be a part): as the sequence (P40337 whole entry, the tested form may be a part) above
# T2 sequence (Q15370 whole entry partner, the tested form may be a part): as the sequence (Q15370 whole entry partner, the tested form may be a part) above
# T2 sequence (Q15369 whole entry partner, the tested form may be a part): as the sequence (Q15369 whole entry partner, the tested form may be a part) above
# Description: FIGS. 14A, 14B, and 14C. p38α selectivity is discriminated by ternary complex formation. (A) Only p38α incubated in the presence of exemplary compound 50 can be immunoprecipitated with GST-tagged VHL/EloB/EloC (VBC). Immobilized VBC was used as a bait to trap purified p38α in the presence of vehicle (DMSO), compound 50, or compound 46 (represented in micromolar concentrations). The rightmost lane represents a 1:25 dilution of initial input protein used in each pull-down. (B) Proximity-based AlphaLISA assay detects significant p38α:compound 50:VHL ternary complex, but no p38α:compound 46:VHL ternary complex. His-p38α and GST-VBC were incubated in the presence of increasing concentrations of compound 50 and compound 46 and the extent of ternary complex formation was assessed by excitation with incident light with 1=680 nm and capture of the emission light at 1=615 nm. Error bars represent the SD from quadruplicate experiments. […] FLAGimmunoprecipitated lysates were separated by SDS-PAGE and assessed via western blots detecting HA (Ub). […]
# Following this logic, to the present disclosure seeks to describe the selectivity of exemplary compound 50 for p38α at the ternary complex level through the use of an in vitro ternary complex pull-down assay. […] Similarly, exemplary PROTACs 46 and 50 were evaluated in a proximity-based luminescence assay (AlphaLISA) to detect ternary complex formation. […]
# [3] = SPR, immobilized GST-VBC, listed as Ex. 50
Compound,leftward shift of ternary affinity from the VHL:PROTAC binary affinity ([1]; SPR) [fold],"koff ([1]; SPR, immobilized GST-VBC) [s⁻¹]","kon ([1]; SPR, immobilized GST-VBC) [M⁻¹ s⁻¹]","residence time ([1]; SPR, immobilized GST-VBC) [min]","p38δ:PROTAC:VHL kon ([1]; SPR, immobilized GST-VBC, listed as Ex. 46) [M⁻¹ s⁻¹]",Kd ([1]; read-out: p38δ:PROTAC:VHL Kd) [µM],p38α:PROTAC:VHL ternary complex formation (AlphaLISA) [2],off-rate quicker than the p38δ:compound 46:VHL complex ([1]; SPR) [fold],residence time shorter than the p38δ:compound 46:VHL complex ([1]; SPR) [fold],ternary affinity weaker than the exemplary compound 46-induced complex ([1]; SPR) [fold],"p38δ:PROTAC:VHL koff [1, 3] [s⁻¹]","p38δ:PROTAC:VHL kon [1, 3] [M⁻¹ s⁻¹]",Kd ([1]; read-out: p38δ:PROTAC:VHL affinity)
COc1cc2c(Oc3ccc(NC(=O)C4(C(=O)Nc5ccc(F)cc5)CC4)cc3F)ccnc2cc1OCCOCCOCCOc1cc(-c2scnc2C)ccc1CNC(=O)[C@@H]1C[C@@H](O)CN1C(=O)[C@H](C(C)C)N1Cc2ccccc2C1=O [compound 46],~8,0.0175,39600,5.5,39621,0.436,no such ternary species is detectable,–,–,–,–,–,–
"COc1cc2c(Oc3ccc(NC(=O)C4(C(=O)Nc5ccc(F)cc5)CC4)cc3F)ccnc2cc1OCCCCOCCCCOCC(=O)N[C@H](C(=O)N1C[C@H](O)C[C@H]1C(=O)NCc1ccc(-c2scnc2C)cc1)C(C)(C)C [compound 50, N-(3-fluoro-4-((7-(4-(4-(2-(((S)-1-((2S,4R)-4-hydroxy-2-((4-(4-methylthiazol-5-yl)benzyl)carbamoyl)pyrrolidin-1-yl)-3,3-dimethyl-1-oxobutan-2-yl)amino)-2-oxoethoxy)butoxy)buto-xy)-6-methoxyquinolin-4-yl)oxy)phenyl)-N-(4-fluorophenyl)cyclopropane-1,1-dicarboxa-mide]",–,–,70100,1.33,–,–,displays a ternary VHL:PROTAC:p38α complex,~5,~4,~3,0.072,70119,1.2 µM and > 1 µM
